Measurements taken from publication PMC11357256, “Selectivity Screening and Structure–Cytotoxic Activity Observations of Selected Oleanolic Acid (OA)-Type Saponins from the Amaranthaceae Family on a Wiade Panel of Human Cancer Cell Lines” (Molecules, 2024).

Columns and labels:
Caco-2 = experiment: MTT cell viability assay, Caco-2 colon cancer cells; format: cell-based; conditions: Homo sapiens
From the text: (§1) Cell lines used in the study were grouped as follows: skin panel (melanomas: HTB140, derived from metastatic site: lymph node, ATCC Hs 294 T; malignant A375, ATCC CRL-1619; stage I primary WM793, RRID:CVCL 8787; skin keratinocytes HaCaT); prostate panel (prostate carcinomas: Du145, derived from metastatic site: brain, ATCC HTB-81; grade IV PC3, derived from metastatic site: bone, ATCC CRL-1435, LNCaP, derived from the metastatic site: lymph node, ATCC CRL-1740; prostate epithelial, PNT2, ECACC 95012613); gastrointestinal panel (colorectal adenocarcinomas: Caco2, ATCC HTB-37, HT29, ATCC HTB-38, DLD-1, ATCC CCL-221, HCT116, ATCC CCL-247, and colon epithelial cells CCD 841 CoN, ATCC CRL-1790; hepatocellular carcinoma HepG2, ATCC HB-8065); thyroid panel (follicular thyroid carcinoma FTC133, ECACC 9406090, undifferentiated thyroid carcinoma 8505C, ECACC 94090184, papillary thyroid carcinoma TPC-1, SCC147, normal thyroid follicular epithelial Nthy-ori 3–1, ECACC 90011609); and breast panel (ER-positive breast adenocarcinoma MCF7, ATCC HTB-22; ER-negative breast adenocarcinoma MDA-MB-231, ATCC HTB-26; breast epithelial MCF10A, ATCC CRL-10317). Cells were grown under standard conditions (37 °C, 5% CO2, relative humidity), and culture media (DMEM/F12 for PNT2, WM 793, HT29, PC3, FTC133, 8505 C, MDA-MB-231, TPC-1; DMEM Low Glucose for DU145; DMEM High Glucose for HTB140, A375, HaCaT; MEM with NEAA for Caco2 and MCF7; RPMI1640 with sodium pyruvate for LNCaP; DMEM/F12 with 20 ng/mL epidermal growth factor (EGF), 10 μg/mL insulin, 0.5 μg/mL hydrocortisone, 100 ng/mL cholera toxin) for MCF10A) supplemented with 10% fetal bovine serum (FBS) or 5% donor horse serum for MCF10A, and 1% antibiotics solution (10,000 U penicillin and 10 mg streptomycin/mL) […], as previously described. All cell lines, culture media, and supplements were from Sigma-Aldrich (Germany).
(§2) The cells were seeded in 96-well plates (1.5 × 10^4 cells/well). After 24 h, fresh medium was added, containing the tested compounds (0.5–100 μg/mL) and incubated for 24 or 48 h. Cell viability was determined by MTT assay, according to the manufacturer’s instructions, as described previously. Each experiment was performed in triplicate. The absorbance was measured at 570 nm using a Biotek Synergy microplate reader (BioTek Instruments Inc., Winooski, VT, USA). Cell viability was expressed as a percent of control (untreated cells). Doxorubicin was used as a reference drug.

8505C = experiment: MTT cell viability assay, 8505C undifferentiated thyroid carcinoma cells; format: cell-based, human; conditions: for IC50: Homo sapiens, 8505C; for Selectivity Index (SI): IC50 Nthy-ori 3-1 / IC50 8505C
From the text: as §1, §2
(§3) The selectivity index (SI) was calculated from the following formula:SI = IC50 of compound in a normal cell line/IC50 of compound in cancer cell line.IC50, half maximal inhibitory concentration, is a concentration required to kill 50% of the cells.

HepG2 = experiment: MTT cell viability assay, HepG2 hepatocellular carcinoma cells; format: cell-based; conditions: Homo sapiens
From the text: as §1, §2

HT29 = experiment: MTT cell viability assay, HT29 colorectal adenocarcinoma cells; format: cell-based; conditions: Homo sapiens, HT-29
From the text: as §1, §2

CCD 841 CoN = experiment: MTT cell viability assay, CCD 841 CoN normal colon epithelial cells; format: cell-based; conditions: Homo sapiens
From the text: as §1, §2

A375 = experiment: MTT cell viability assay, A375 malignant melanoma cells; format: cell-based, human; conditions: for IC50: Homo sapiens, A-375
From the text: as §1, §2, §3

MCF7 = experiment: MTT cell viability assay, MCF7 breast adenocarcinoma cells; format: cell-based; conditions: Homo sapiens
From the text: as §1, §2

Nthy-ori 3-1 = experiment: MTT cell viability assay, Nthy-ori 3-1 normal thyroid epithelial cells; format: cell-based; conditions: Homo sapiens
From the text: as §1, §2

HaCaT = experiment: MTT cell viability assay, HaCaT keratinocytes; format: cell-based; conditions: Homo sapiens
From the text: as §1, §2

LNCaP = experiment: MTT cell viability assay, LNCaP prostate adenocarcinoma cells; format: cell-based; conditions: Homo sapiens
From the text: as §1, §2

WM793 = experiment: MTT cell viability assay, WM793 primary melanoma cells; format: cell-based, human; conditions: for IC50: Homo sapiens
From the text: as §1, §2, §3

TPC-1 = experiment: MTT cell viability assay, TPC-1 papillary thyroid carcinoma cells; format: cell-based, human; conditions: for IC50: Homo sapiens, TPC1
From the text: as §1, §2, §3

PNT2 = experiment: MTT cell viability assay, PNT2 normal prostate epithelial cells; format: cell-based; conditions: Homo sapiens
From the text: as §1, §2

DLD-1 = experiment: MTT cell viability assay, DLD-1 colon cancer cells; format: cell-based; conditions: Homo sapiens
From the text: as §1, §2

Du-145 = experiment: MTT cell viability assay, Du-145 prostate carcinoma cells; format: cell-based; conditions: Homo sapiens
From the text: as §1, §2

MDA-MB-231 = experiment: MTT cell viability assay, MDA-MB-231 breast adenocarcinoma cells; format: cell-based; conditions: Homo sapiens
From the text: as §1, §2

HTB-140 = experiment: MTT cell viability assay, HTB-140 metastatic melanoma cells; format: cell-based, human; conditions: for IC50: Homo sapiens
From the text: as §1, §2, §3

PC3 = experiment: MTT cell viability assay, PC3 prostate carcinoma cells; format: cell-based; conditions: Homo sapiens, PC-3
From the text: as §1, §2

FTC133 = experiment: MTT cell viability assay, FTC133 follicular thyroid carcinoma cells; format: cell-based, human; conditions: for IC50: Homo sapiens, FTC-133
From the text: as §1, §2, §3

MCF10A = experiment: MTT cell viability assay, MCF10A normal breast epithelial cells; format: cell-based; conditions: Homo sapiens, MCF-10A
From the text: as §1, §2

HCT116 = experiment: MTT cell viability assay, HCT116 colon cancer cells; format: cell-based; conditions: Homo sapiens, HCT-116
From the text: as §1, §2

In the case of CC1(C)CC[C@]2(C(=O)O)CC[C@]3(C)C(=CC[C@@H]4[C@@]5(C)CC[C@H](O)C(C)(C)[C@@H]5CC[C@]43C)[C@@H]2C1 [OA, oleanolic acid], the IC50 (Caco-2; Caco-2, 24 h) is reported as 13 µg/mL, the IC50 (Caco-2; Caco-2, 48 h) is reported as 8.3 µg/mL and the IC50 (8505C; 24 h) is reported as 19.5 µg/mL. For the same molecule, the IC50 (8505C; 48 h) was 11.3 µg/mL, the “Selectivity Index (SI)” value (8505C; 24 h) was 4.8 and the “Selectivity Index (SI)” value (8505C; 48 h) was 6.4. For the same molecule, the IC50 (HepG2; HepG2, 24 h) was 51.5 µg/mL, the IC50 (HepG2; HepG2, 48 h) was 10.7 µg/mL and the IC50 (HT29; HT29, 24 h) was > 100 µg/mL. For the same molecule, the IC50 (HT29; HT29, 48 h) was > 100 µg/mL, the IC50 (CCD 841 CoN; 24 h) was > 100 µg/mL and the IC50 (CCD 841 CoN; 48 h) was > 100 µg/mL. For the same molecule, the IC50 (A375; A375, 24 h) was 2.2 µg/mL, the IC50 (A375; A375, 48 h) was 0.9 µg/mL and the “Selectivity Index (SI)” value (A375; IC50 HaCaT / IC50 A375, 24 h) was 5.2. For the same molecule, the IC50 (MCF7; MCF7, 24 h) was > 100 µg/mL, the IC50 (MCF7; MCF7, 48 h) was 67 µg/mL and the IC50 (Nthy-ori 3-1; 24 h) was 94.4 µg/mL. It also gave an IC50 (Nthy-ori 3-1; 48 h) of 71.6 µg/mL, an IC50 (HaCaT; 24 h) of 11.2 µg/mL and an IC50 (HaCaT; 48 h) of 7.5 µg/mL. For the same molecule, the IC50 (LNCaP; 24 h) was > 100 µg/mL, the IC50 (LNCaP; 48 h) was > 100 µg/mL and the IC50 (WM793; WM793, 24 h) was 2.8 µg/mL. For the same molecule, the IC50 (WM793; WM793, 48 h) was 1.2 µg/mL, the “Selectivity Index (SI)” value (WM793; IC50 HaCaT / IC50 WM793, 24 h) was 4.0 and the “Selectivity Index (SI)” value (WM793; IC50 HaCaT / IC50 WM793, 48 h) was 6.0. For the same molecule, the IC50 (TPC-1; TPC-1, 24 h) was 36.6 µg/mL, the IC50 (TPC-1; TPC-1, 48 h) was 30 µg/mL and the “Selectivity Index (SI)” value (TPC-1; IC50 Nthy-ori 3-1 / IC50 TPC-1, 24 h) was 2.6. The “Selectivity Index (SI)” value (TPC-1; IC50 Nthy-ori 3-1 / IC50 TPC-1, 48 h) was 2.4, the IC50 (PNT2; 24 h) was > 100 µg/mL and the IC50 (PNT2; 48 h) was > 100 µg/mL. The IC50 (DLD-1; DLD-1, 24 h) was 48.7 µg/mL, the IC50 (DLD-1; DLD-1, 48 h) was 24.5 µg/mL and the IC50 (Du-145; DU-145, 24 h) was 23.4 µg/mL. The IC50 (Du-145; DU-145, 48 h) was 12.2 µg/mL, the IC50 (MDA-MB-231; MDA-MB-231, 24 h) was > 100 µg/mL and the IC50 (MDA-MB-231; MDA-MB-231, 48 h) was 38.5 µg/mL. For the same molecule, the IC50 (HTB-140; HTB-140, 24 h) was 51.4 µg/mL, the IC50 (HTB-140; HTB-140, 48 h) was 29.5 µg/mL and the “Selectivity Index (SI)” value (HTB-140; IC50 HaCaT / IC50 HTB-140, 24 h) was 0.2. For the same molecule, the “Selectivity Index (SI)” value (HTB-140; IC50 HaCaT / IC50 HTB-140, 48 h) was 0.2, the IC50 (PC3; PC3, 24 h) was > 100 µg/mL and the IC50 (PC3; PC3, 48 h) was > 100 µg/mL. The IC50 (FTC133; FTC133, 24 h) was 13.5 µg/mL, the IC50 (FTC133; FTC133, 48 h) was 4.9 µg/mL and the “Selectivity Index (SI)” value (FTC133; IC50 Nthy-ori 3-1 / IC50 FTC133, 24 h) was 6.99. The “Selectivity Index (SI)” value (FTC133; IC50 Nthy-ori 3-1 / IC50 FTC133, 48 h) was 14.6, the IC50 (MCF10A; 24 h) was > 100 µg/mL and the IC50 (MCF10A; 48 h) was > 100 µg/mL. It also gave an IC50 (HCT116; HCT116, 24 h) of 25.6 µg/mL and an IC50 (HCT116; HCT116, 48 h) of 18.5 µg/mL.
